# Measured values from patent publication US10202351B2, “Pyrazolyl derivatives as pest control agents” (BAYER ANIMAL HEALTH GMBH, priority 2015, dated 2019).
# Legend:
# [1] = test system: Ctenocephalides felis; assay: Ctenocephalides felis oral test; type: in vivo; settings: application rate 100 ppm in citrated cattle blood, kill after 2 days
# Source text: Solvent: dimethyl sulfoxide […] Dilution with citrated cattle blood gives the desired concentration. About 20 unfed adult cat fleas (Ctenocephalides felis) are placed into a chamber which is closed at the top and bottom with gauze. A metal cylinder whose bottom end is closed with parafilm is placed onto the chamber. The cylinder contains the blood/active ingredient formulation, which can be imbibed by the fleas through the parafilm membrane.
# [2] = test system: Tetranychus urticae; assay: Tetranychus urticae spray test, OP-resistant; type: in vivo; settings: application rate 100 g/ha, all stages on bean leaf discs, after 6 days
# Procedure: Solvent: 78.0 parts by weight of acetone • • 1.5 parts by weight of dimethylformamide Emulsifier: alkylaryl polyglycol ether […] To produce further test concentrations, the formulation is diluted with emulsifier-containing water. Discs of bean leaves (Phaseolus vulgaris) infested with all stages of the greenhouse red spider mite (Tetranychus urticae) are sprayed with an active ingredient formulation of the desired concentration.
# [3] = test system: Phaedon cochleariae; assay: Phaedon cochleariae spray test; type: in vivo; settings: application rate 100 g/ha, larvae on Chinese cabbage leaf discs, after 7 days
# Procedure: (§1) Solvent: 78.0 parts by weight of acetone • • 1.5 parts by weight of dimethylformamide Emulsifier: alkylaryl polyglycol ether […] To produce further test concentrations, the formulation is diluted with emulsifier-containing water. Discs of Chinese cabbage leaves (Brassica pekinensis) are sprayed with an active ingredient formulation of the desired concentration and, after drying, populated with larvae of the mustard beetle (Phaedon cochleariae).
# [4] = test system: Lucilia cuprina; assay: Lucilia cuprina test; type: in vivo; settings: application rate 100 ppm, L1 larvae, kill after 2 days
# Procedure: (§2) Solvent: dimethyl sulfoxide
# (§3) To produce a suitable preparation of active compound, 10 mg of active compound are mixed with 0.5 ml of dimethyl sulfoxide, and the concentrate is diluted with water to the desired concentration.
# About 20 L1 larvae of the Australian sheep blowfly (Lucilia cuprina) are transferred into a test vessel containing minced horsemeat and the active compound formulation of the desired concentration.
# After 2 days, the kill in % is determined. 100% means that all the larvae have been killed; 0% means that no larvae have been killed.
# [5] = test system: Spodoptera frugiperda; assay: Spodoptera frugiperda spray test; type: in vivo; settings: application rate 100 g/ha, caterpillars on maize leaf discs, after 7 days
# Procedure: as §1, with “Leaf discs” for “Discs”, “maize (Zea mays)” for “Chinese cabbage leaves (Brassica pekinensis)”, “compound” for “ingredient”, “caterpillars” for “larvae”, “armyworm (Spodoptera frugiperda).” for “mustard beetle (Phaedon cochleariae).”
# [6] = test system: Musca domestica; assay: Musca domestica test; type: in vivo; settings: application rate 100 ppm, adult houseflies, kill after 2 days
# Procedure: as §2, §3
# Vessels containing a sponge treated with sugar solution and the active ingredient formulation of the desired concentration are populated with 10 adult houseflies (Musca domestica)).
# After 2 days, the kill in % is determined. 100% means that all of the flies have been killed; 0% means that none of the flies have been killed.
# [7] = test system: Boophilus microplus; assay: Boophilus microplus injection test; type: in vivo; settings: application rate 20 μg/animal, after 7 days, laying of fertile eggs
# Procedure: Solvent: dimethyl sulfoxide […] The animals are transferred into dishes and kept in a climate-controlled room. Efficacy is assessed after 7 days by laying of fertile eggs. Eggs which are not visibly fertile are stored in a climate-controlled cabinet until the larvae hatch after about 42 days.
# [8] = logP determination by HPLC on reversed-phase column (EEC Directive 79/831 Annex V.A8); type: physicochemical
# [9] = Table 1, HPLC C18, acetonitrile/water with formic acid
# [10] = Table 3 intermediates, HPLC C18, acetonitrile/water with formic acid
SMILES,efficacy [1],efficacy [2],efficacy [3],efficacy [4],efficacy [5],efficacy [6],efficacy [7],"lgP [8, 9]","lgP [8, 10]",lgP ([8]; synthesis example)
Cc1cc(C(F)(C(F)(F)F)C(F)(F)F)cc(C(F)(F)F)c1-n1cc(-c2cc(NC(=O)c3ccnc(F)c3)ccc2F)cn1 [Example 2-1],95%,90%,100%,98%,100%,100%,100%,,,
COc1cc(C(=O)Nc2cc(-c3cnn(-c4c(Cl)cc(C(F)(C(F)(F)F)C(F)(F)F)cc4Cl)c3)ccc2F)ccc1F [Example 22],100%,100%,100%,100%,100%,100%,100%,,,
Cc1cc(C(F)(C(F)(F)F)C(F)(F)F)cc(C)c1-n1cc(-c2cnc(Cl)c(NC(=O)C3(C#N)CC3)c2)cn1 [Example 13],100%,,,90%,83%,80%,100%,lgP 4.69,,
Cc1cc(C(=O)Nc2cc(-c3cnn(-c4c(C)cc(C(F)(C(F)(F)F)C(F)(F)F)cc4C(F)(F)F)c3)ccc2F)ccc1F [Example 53],100%,,,,,100%,100%,,,
Cc1cc(C(F)(C(F)(F)F)C(F)(F)F)cc(C(F)(F)F)c1-n1cc(-c2ccc(F)c(NC(=O)c3ccc(Cl)nc3)c2)cn1 [Example 49],100%,,100%,100%,100%,100%,,,,
COc1cccc(C(=O)Nc2cccc(-c3cnn(-c4c(C)cc(C(F)(C(F)(F)F)C(F)(F)F)cc4C(F)(F)F)c3)c2F)c1 [Example 73],100%,,100%,100%,100%,,100%,,,
Cc1cc(C(F)(C(F)(F)F)C(F)(F)F)cc(C(F)(F)F)c1-n1cc(-c2ccc(F)c(NC(=O)C3CSC3)c2F)cn1 [Example 65],100%,100%,100%,100%,100%,100%,80%,,,
Cc1cc(C(F)(C(F)(F)F)C(F)(F)F)cc(C(F)(F)F)c1-n1cc(-c2cc(NC(=O)c3ccncc3)ccc2F)cn1 [Example 2-2],95%,90%,100%,98%,100%,90%,100%,,,
Cc1cc(C(F)(C(F)(F)F)C(F)(F)F)cc(C(F)(F)F)c1-n1cc(-c2ccc(F)c(NC(=O)c3cccs3)c2F)cn1 [Example 26],100%,,100%,100%,100%,,100%,,,
Cc1cc(C(F)(C(F)(F)F)C(F)(F)F)cc(C(F)(F)F)c1-n1cc(-c2ccc(N(C)C)c(NC(=O)C3(C)CC3)c2)cn1 [Example 36],100%,,100%,100%,100%,,100%,,,
Cc1cc(C(F)(C(F)(F)F)C(F)(F)F)cc(C(F)(F)F)c1-n1cc(-c2cc(NC(=O)c3cnco3)ccc2F)cn1 [Example 2-11],100%,,100%,100%,100%,,100%,,,
Cc1cc(C(F)(C(F)(F)F)C(F)(F)F)cc(C(F)(F)F)c1-n1cc(-c2cccc(NC(=O)c3cccs3)c2F)cn1 [Example 76],100%,,100%,100%,100%,,100%,,,
Cc1cc(C(F)(C(F)(F)F)C(F)(F)F)cc(C)c1-n1cc(-c2ccc(Cl)c(NC(=O)c3ccccc3F)c2)cn1 [Example 10],,,,,,,100%,lgP 6.06,,
Cc1cc(C(F)(C(F)(F)F)C(F)(F)F)cc(C(F)(F)F)c1-n1cc(-c2ccc(F)c(NC(=O)c3ccc(F)nc3)c2F)cn1 [Example 40],100%,100%,100%,100%,100%,100%,100%,,,
Cc1ccc(C(=O)Nc2cc(-c3cnn(-c4c(C)cc(C(F)(C(F)(F)F)C(F)(F)F)cc4C(F)(F)F)c3)ccc2F)cc1C [Example 52],,,,,,100%,100%,,,
Nc1cccc(-c2cnn(-c3c(Cl)cc(C(F)(F)F)cc3Cl)c2)c1 [III-1],,,,,,,,,lgP 2.90,
Cc1cc(C(F)(C(F)(F)F)C(F)(F)F)cc(C)c1-n1cc(-c2cccc(N)c2F)cn1 [III-10],,,,,,,,,lgP 4.61,
Cc1cc(C(F)(C(F)(F)F)C(F)(F)F)cc(C)c1-n1cc(-c2ccc(Cl)c(NC(=O)c3cccc(F)c3)c2)cn1 [Example 8],,,,,,,100%,lgP 5.59,,
"Cc1cc(C(F)(C(F)(F)F)C(F)(F)F)cc(C)c1-n1cc(-c2ccc(Cl)c(N)c2)cn1 [III-7, 2-chloro-5-[1-[2,6-dimethyl-4-[1,2,2,2-tetrafluoro-1-(trifluoromethyl)ethyl]phenyl]pyrazol-4-yl]aniline]",,,,,,,,,lgP 4.93,4.93
Cc1cc(C(F)(C(F)(F)F)C(F)(F)F)cc(C(F)(F)F)c1-n1cc(-c2ccc(F)c(N(C)C(=O)c3ccc(F)nc3)c2)cn1 [Example 48],100%,,100%,100%,100%,100%,100%,,,
Cc1cc(C(F)(C(F)(F)F)C(F)(F)F)cc(C)c1-n1cc(-c2ccc(F)c(N)c2F)cn1 [III-9],,,,,,,,,lgP 4.81,
Cc1cc(C(F)(C(F)(F)F)C(F)(F)F)cc(C(F)(F)F)c1-n1cc(-c2ccc(F)c(NC(=O)c3ccc(F)nc3)c2)cn1 [Example 39],100%,100%,100%,100%,100%,100%,100%,,,
Cc1cc(C(F)(C(F)(F)F)C(F)(F)F)cc(C(F)(F)F)c1-n1cc(-c2cccc(NC(=O)c3ccc(Cl)nc3)c2F)cn1 [Example 70],100%,,100%,100%,100%,100%,100%,,,
Cc1cc(C(F)(C(F)(F)F)C(F)(F)F)cc(C)c1-n1cc(-c2ccc(F)c(N)c2)cn1 [III-8],,,,,,,,,lgP 4.47,
Cc1cc(C(F)(C(F)(F)F)C(F)(F)F)cc(C(F)(F)F)c1-n1cc(-c2ccc(F)c(N(C)C(=O)c3ccc(F)nc3)c2F)cn1 [Example 41],100%,,100%,100%,83%,100%,100%,,,
Cc1cc(C(F)(C(F)(F)F)C(F)(F)F)cc(C)c1-n1cc(-c2ccnc(NC(=O)c3ccc(F)cc3)c2)cn1 [Example 14],,,,,,,80%,lgP 4.69,,
Cc1cc(C(F)(C(F)(F)F)C(F)(F)F)cc(C(F)(F)F)c1-n1cc(-c2ccc(N(C)C)c(NC(=O)c3ccsc3)c2)cn1 [Example 37],100%,,100%,100%,100%,,100%,,,
O=[N+]([O-])c1cccc(-c2cnn(-c3c(Cl)cc(C(F)(F)F)cc3Cl)c2)c1 [II-1],,,,,,,,,lgP 4.32,
"Cc1cc(C(F)(C(F)(F)F)C(F)(F)F)cc(C)c1-n1cc(-c2ccc(Cl)c([N+](=O)[O-])c2)cn1 [II-7, 4-(4-chloro-3-nitrophenyl)-1-[2,6-dimethyl-4-[1,2,2,2-tetrafluoro-1-(trifluoromethyl)ethyl]phenyl]pyrazole]",,,,,,,,,lgP 5.39,5.39
